For orientation: EC50 means the midpoint of the concentration-response curve.

Where two headings read alike, the source gives them in different places.

Series [1] concerns D. melanogaster BII cell line (expresses the ecdysteroid receptor complex EcR-USP). As to the kind of experiment: Drosophila melanogaster BII cell line bioassay (turbidometric; agonist and antagonist versions).
Series [2] addresses T1, wild-type Choristoneura fumiferana EcR (CfEcR-DEF) (Choristoneura fumiferana, UniProt O77255).
T1 sequence (O77255 219-541): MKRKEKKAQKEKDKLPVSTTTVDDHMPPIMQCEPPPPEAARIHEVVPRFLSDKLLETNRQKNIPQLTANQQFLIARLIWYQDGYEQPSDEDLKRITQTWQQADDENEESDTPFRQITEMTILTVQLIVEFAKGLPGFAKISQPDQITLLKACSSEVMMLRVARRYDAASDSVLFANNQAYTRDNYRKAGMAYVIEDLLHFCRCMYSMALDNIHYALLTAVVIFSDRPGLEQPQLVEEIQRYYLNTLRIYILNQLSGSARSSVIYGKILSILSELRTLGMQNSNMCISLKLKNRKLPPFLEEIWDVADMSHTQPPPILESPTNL
T1 sequence (P28702 299-449 partner): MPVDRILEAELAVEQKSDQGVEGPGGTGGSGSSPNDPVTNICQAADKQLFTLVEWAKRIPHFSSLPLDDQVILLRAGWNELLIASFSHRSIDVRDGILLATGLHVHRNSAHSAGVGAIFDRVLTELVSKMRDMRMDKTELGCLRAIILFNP
As to the kind of experiment: Two-hybrid gene switch assay, wild-type CfEcR-DEF (GAL4-EcR / VP16-RXR-USP chimera, luciferase) in NIH3T3 cells. To be noted: for RMFI (relative maximum fold induction, relative to diacylhydrazine 30): wt-CfEcR gene switch, NIH3T3, Example One.

Series [3] has as its system EcRs (lepidopteran and non-lepidopteran). Kind of series: Two-hybrid gene switch assays, statements across the set of ten EcRs in NIH3T3 cells. The following applies: FIGS. 13 and 14.
Series [4] has as its target T2, Manduca sexta EcR (MsEcR) (Manduca sexta, UniProt P49883).
T2 sequence (P49883 293-531 limits assumed): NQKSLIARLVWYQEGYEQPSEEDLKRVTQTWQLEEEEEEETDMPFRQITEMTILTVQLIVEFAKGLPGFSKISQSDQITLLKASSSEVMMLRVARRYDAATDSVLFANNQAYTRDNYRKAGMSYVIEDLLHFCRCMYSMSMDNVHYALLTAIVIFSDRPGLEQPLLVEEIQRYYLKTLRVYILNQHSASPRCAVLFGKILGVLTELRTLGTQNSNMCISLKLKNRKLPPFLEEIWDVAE
As to the kind of experiment: Two-hybrid gene switch assay, MsEcR-CDEF in NIH3T3 cells. The following applies: MsEcR; alternative 3T3 fibroblast cell stock.

In series [5] the target is T3, wild-type Drosophila melanogaster EcR (DmEcR-DEF) (Drosophila melanogaster, UniProt P34021).
T3 sequence (P34021 342-878 limits assumed): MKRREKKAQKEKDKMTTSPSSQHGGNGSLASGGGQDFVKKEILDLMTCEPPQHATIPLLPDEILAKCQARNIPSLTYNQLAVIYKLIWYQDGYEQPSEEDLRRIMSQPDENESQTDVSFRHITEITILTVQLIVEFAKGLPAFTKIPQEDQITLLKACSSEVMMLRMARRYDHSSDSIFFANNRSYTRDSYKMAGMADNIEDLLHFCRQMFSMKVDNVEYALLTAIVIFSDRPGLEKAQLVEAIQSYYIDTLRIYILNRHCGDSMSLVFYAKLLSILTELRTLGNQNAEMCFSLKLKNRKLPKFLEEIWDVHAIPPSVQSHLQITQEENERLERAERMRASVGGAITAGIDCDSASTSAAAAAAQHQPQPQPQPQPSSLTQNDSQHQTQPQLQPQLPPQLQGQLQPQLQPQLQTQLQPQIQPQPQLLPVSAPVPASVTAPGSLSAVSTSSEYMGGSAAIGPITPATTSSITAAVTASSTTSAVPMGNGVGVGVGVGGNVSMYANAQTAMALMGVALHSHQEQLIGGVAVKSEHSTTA
Kind of series: Two-hybrid gene switch assay, DmEcR-DEF in NIH3T3 cells. To be noted: DmEcR.

The target in series [6] is T4, wild-type Aedes aegypti EcR (AaEcR-DEF) (Aedes aegypti, UniProt P49880).
T4 sequence (P49880 405-776 limits assumed): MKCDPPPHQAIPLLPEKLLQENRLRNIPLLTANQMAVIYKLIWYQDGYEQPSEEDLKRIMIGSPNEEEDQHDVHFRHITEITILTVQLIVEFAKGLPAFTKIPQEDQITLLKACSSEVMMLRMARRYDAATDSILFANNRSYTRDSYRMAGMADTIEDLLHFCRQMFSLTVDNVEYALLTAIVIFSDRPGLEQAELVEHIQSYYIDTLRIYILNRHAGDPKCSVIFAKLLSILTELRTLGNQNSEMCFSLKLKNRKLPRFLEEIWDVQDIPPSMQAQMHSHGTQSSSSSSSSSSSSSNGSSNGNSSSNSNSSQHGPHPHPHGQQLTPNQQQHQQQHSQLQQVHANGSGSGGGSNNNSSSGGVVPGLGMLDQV
As to the kind of experiment: Two-hybrid gene switch assay, AaEcR-DEF in NIH3T3 cells. The following applies: AaEcR.

Setting [7] is: Drosophila melanogaster, read-out: EC50 (M), BII bioassay results.
The mark [8] stands for this setting: read-out: EC50 (M), BII bioassay results, D. melanogaster BII cell line, turbidometric.
Setting [9] is: relative to 3,5-dimethyl-benzoic acid N-tert-butyl-N′-(2-ethyl-3-methoxy-benzoyl)-hydrazide.

For `CO[C@H](CCC(C)C)[C@](C)(O)C1CC[C@@]2(O)C3=CC(=O)C4C[C@@H](O)[C@@H](O)CC4(C)C3=CCC12C` (some centres unmarked) [compound 22, dacryhainansterone, 22-methyl ether], in series [1] (setting [7]), the concentration giving a half-maximal response (EC50) turned out to be 1e-07 M. For the same compound, the “RMFI (relative maximum fold induction, relative to diacylhydrazine 30)” value in series [2] is given as around 0.3.

With `CO[C@H]1C[C@@]2(C)[C@@H](C[C@H]1O)C(=O)C=C1[C@@H]2CC[C@]2(C)[C@@H]([C@@](C)(O)[C@@H](CCC(C)C)OC)CC[C@@]12O` [compound 19, ponasterone A, 2,22-dimethyl ether], in series [1] (setting [8]), the concentration for a half-maximal effect (EC50) turned out to be 3e-08 M.

Take `CCCCO[C@H](CCC(C)(C)O)[C@](C)(O)C1CC[C@@]2(O)C3=CC(=O)C4C[C@@H](O)[C@@H](O)CC4(C)C3CCC12C` (some centres unmarked) [compound 8, 20-hydroxyecdysone, 22-n-butyl ether]: in series [1] (setting [7]), the EC50 was 1e-07 M.

For `CC(C)(O)CC[C@@H](OCc1ccccc1)[C@](C)(O)C1CC[C@@]2(O)C3=CC(=O)C4C[C@@H](O)[C@@H](O)CC4(C)C3CCC12C` (some centres unmarked) [compound 9, 20-hydroxyecdysone, 22-benzyl ether], the “BII potency relative to 20E” value in series [1] is recorded as “does not decrease 20E potency very much”. In series [1] (setting [7]), the EC50 turned out to be 2.2e-08 M.

On to `CCC1(O[C@H](CCC(C)(C)O)[C@](C)(O)C2CC[C@@]3(O)C4=CC(=O)C5C[C@@H](O)[C@@H](O)CC5(C)C4CCC23C)CO1` (stereo partly drawn) [compound 23, 20-hydroxyecdysone, 22-(28R,S)-2′-ethyloxiranyl ether], for which the half-maximal effective concentration (EC50) in series [1] (setting [7]) was 2.2e-05 M.

Consider `C=CCO[C@H](CCC(C)(C)O)[C@](C)(O)C1CC[C@@]2(O)C3=CC(=O)C4C[C@@H](O)[C@@H](O)CC4(C)C3CCC12C` (some centres unmarked) [compound 7, 20-hydroxyecdysone, 22-allyl ether], for which the EC50 in series [1] (setting [7]) was found to be 1.6e-07 M.

For `CO[C@H]1C[C@@]2(C)[C@@H](C[C@H]1O)C(=O)C=C1[C@@H]2CC[C@]2(C)[C@@H]([C@@](C)(O)C(O)CCC(C)(C)O)CC[C@@]12O` (some centres unmarked) [compound 1, 20-hydroxyecdysone, 2-methyl ether], in series [1] (setting [8]), the EC50 is 1.1e-06 M.

Turning to `CO[C@H](CCC(C)C)[C@](C)(O)[C@H]1CC[C@@]2(OC)C3=CC(=O)[C@@H]4C[C@@H](O)[C@@H](O)C[C@]4(C)[C@H]3CC[C@]12C` [compound 21, ponasterone A, 14,22-dimethyl ether], the concentration giving a half-maximal response (EC50) in series [1] (setting [8]) is 1.7e-07 M.

In the case of `CO[C@@]12CC[C@H]([C@@](C)(O)[C@H](O)CCC(C)C)[C@@]1(C)CC[C@H]1C2=CC(=O)[C@@H]2C[C@@H](O)[C@@H](O)C[C@@]21C` [compound 17, ponasterone A, 14-methyl ether], the concentration giving a half-maximal response (EC50) in series [1] (setting [8]) was 6e-08 M.

For the compound `C=C(C)CC[C@@H](O)[C@](C)(O)[C@H]1CC[C@@]2(O)C3=CC(=O)[C@@H]4C[C@@H](O)[C@@H](O)C[C@]4(C)[C@H]3CC[C@]12C` [isostachysterone C, 25,26-didehydroponasterone A], in series [3], the “activity across the tested set of EcRs” value was “active”.

Regarding `CCO[C@H](CCC(C)(C)O)[C@](C)(O)C1CC[C@@]2(O)C3=CC(=O)C4C[C@@H](O)[C@@H](O)CC4(C)C3CCC12C` (some centres unmarked) [compound 5, 20-hydroxyecdysone-22-ethyl ether], the “BII potency relative to 20E” value in series [1] was “slightly less potent than methyl”. In series [1] (setting [7]), the 50% effective concentration (EC50) is 2.2e-08 M. In series [2], the midpoint of the response, the EC50, lay at 4850 nM and the “RMFI (relative maximum fold induction, relative to diacylhydrazine 30)” value was determined as 0.77. Also, the activation at 5 µM in series [2] (NIH3T3, 48 h, read-out: reporter gene induction, % of maximum fold induction) came to 77%.

For `CO[C@@]12CCC([C@@](C)(O)[C@H](O)CCC(C)(C)O)C1(C)CCC1C2=CC(=O)C2C[C@@H](O)[C@@H](O)CC21C` (some centres unmarked) [compound 3, 20-hydroxyecdysone, 14-methyl ether], in series [1] (setting [7]), the EC50 was 3.2e-06 M.

Turning to `CO[C@@H]1C[C@H]2C(=O)C=C3[C@H](CC[C@]4(C)[C@@H]([C@@](C)(O)[C@H](O)CCC(C)(C)O)CC[C@@]34O)[C@@]2(C)C[C@@H]1O` [compound 2, 20-hydroxyecdysone, 3-methyl ether], the “potency of ether relative to parent” value in series [4] is listed as “lose potency”. Further, the EC50 in series [1] (setting [8]) came out at 6e-07 M.

For `COC(C)(C)CC[C@@H](O)[C@](C)(O)[C@H]1CC[C@@]2(O)C3=CC(=O)[C@@H]4C[C@@H](O)[C@@H](O)C[C@]4(C)[C@H]3CC[C@]12C` [compound 10, 20-hydroxyecdysone-25-methyl ether], the 50% effective concentration (EC50) in series [1] (setting [8]) came out at 6e-08 M.

For `CO[C@H](CCC(C)(C)O)[C@](C)(O)C1CC[C@@]2(OC)C3=CC(=O)C4C[C@@H](O)[C@@H](O)CC4(C)C3CCC12C` (some centres unmarked) [compound 13, 20-hydroxyecdysone, 14,22-dimethyl ether], the EC50 in series [1] (setting [7]) came to 2.5e-06 M.

For `CO[C@H](CCC(C)(C)O)[C@](C)(O)C1CC[C@@]2(O)C3=CC(=O)C4C[C@@H](O)[C@@H](O)CC4(C)C3CCC12C` (some centres unmarked) [compound 4, 20-hydroxyecdysone-22-methyl ether], the “potency of ether relative to parent” value in series [4] is on record as “lose potency”. For the same compound, the “BII potency relative to 20E” value in series [1] was “maintains 20E potency”. Besides, the EC50 is 6.3e-09 M in series [1] (setting [7]) and 6.31e-09 M in series [1] (Drosophila melanogaster, read-out: −log EC50 (converted)).

For the compound `COC1C[C@H]2C(=O)C=C3[C@H](CC[C@]4(C)[C@@H]([C@@](C)(O)C(CCC(C)(C)O)OC)CC[C@@]34O)[C@@]2(C)CC1O` (some centres unmarked) [compound 12, 20-hydroxyecdysone, 3,22-dimethyl ether], in series [4], the “potency of ether relative to parent” value is “lose potency”. The 50% effective concentration (EC50) in series [1] (setting [8]) worked out at 2.2e-07 M.

Take `CO[C@H](CCC(C)C)[C@](C)(O)[C@H]1CC[C@@]2(O)C3=CC(=O)[C@@H]4C[C@@H](O)[C@@H](O)C[C@]4(C)[C@H]3CC[C@]12C` [PoA-22-methyl ether]: the “rel max FI (diacylhydrazine), DM” value in series [5] (setting [9]) is reported as around 0.9. Moreover, the half-maximal effective concentration (EC50) in series [5] (EC50 (μM), DM, NIH3T3 cells, luciferase, 48 h, ligand 0.01-33 μM) was around 0.03 µM; in series [2], around 2000 nM; in series [6] (EC50 (μM), AA, NIH3T3 cells, luciferase, 48 h, ligand 0.01-33 μM) it was below 0.01 µM. Also, the Emax in series [2] (NIH3T3, 48 h, read-out: rel max FI (diacylhydrazine), CF) was in the range of 30 to 65%. Also, the “rel max FI (diacylhydrazine), AA” value in series [6] (setting [9]) is listed as around 0.8.

Take `CO[C@H]1C[C@@]2(C)[C@@H](C[C@H]1O)C(=O)C=C1[C@@H]2CC[C@]2(C)[C@@H]([C@@](C)(O)[C@@H](CCC(C)(C)O)OC)CC[C@@]12O` [compound 11, 20-hydroxyecdysone, 2,22-dimethyl ether]: in series [1] (setting [8]), the 50% effective concentration (EC50) stood at 9.3e-07 M.

The values are drawn from patent publication US8536354B2, “Steroidal ligands and their use in gene switch modulation” (Intrexon Corporation, priority 2008, dated 2013).
